Measurements taken from patent US10369130B2, “Antibacterial compounds” (AZIENDE CHIMICHE RIUNITE ANGELINI FRANCESCO A.C.R.A.F. …, priority 2014, dated 2019).
Where a name gives a salt, the structure may show the parent alone.

Tests used:
Assay type in all cases: biochemical
Settings in all cases: single concentration (200, 100 or 50 μM), in duplicate, versus the positive control (vehicle)
[1] = molecular target: T1, DNA gyrase (Escherichia coli, UniProt P0AES4+P0AES6); test: DNA gyrase supercoiling assay (E. coli)
T1 construct: purchased Inspiralis, UK

[2] = molecular target: T2, Topoisomerase IV (Escherichia coli, UniProt P0AFI2+P20083); test: Topoisomerase IV decatenation assay (E. coli)
T2 construct: purchased Inspiralis, UK
T2 sequence (P20083 whole entry): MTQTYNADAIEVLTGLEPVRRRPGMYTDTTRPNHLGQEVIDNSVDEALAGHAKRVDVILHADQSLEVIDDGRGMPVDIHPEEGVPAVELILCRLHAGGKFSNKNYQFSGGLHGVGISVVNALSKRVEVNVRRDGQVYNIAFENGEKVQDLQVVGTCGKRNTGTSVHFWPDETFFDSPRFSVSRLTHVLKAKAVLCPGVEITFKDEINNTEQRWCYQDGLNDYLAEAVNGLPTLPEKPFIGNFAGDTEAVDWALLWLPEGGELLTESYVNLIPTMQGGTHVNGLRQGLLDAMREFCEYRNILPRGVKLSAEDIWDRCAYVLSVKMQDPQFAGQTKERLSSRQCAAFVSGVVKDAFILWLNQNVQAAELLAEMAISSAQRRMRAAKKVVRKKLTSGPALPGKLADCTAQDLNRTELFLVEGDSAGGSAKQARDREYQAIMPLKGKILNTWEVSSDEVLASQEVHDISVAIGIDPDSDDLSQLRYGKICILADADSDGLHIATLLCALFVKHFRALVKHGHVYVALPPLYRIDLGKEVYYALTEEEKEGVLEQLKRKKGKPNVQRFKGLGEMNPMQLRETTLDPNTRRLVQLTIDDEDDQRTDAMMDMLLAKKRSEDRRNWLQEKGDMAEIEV
T2 sequence (P0AFI2 whole entry): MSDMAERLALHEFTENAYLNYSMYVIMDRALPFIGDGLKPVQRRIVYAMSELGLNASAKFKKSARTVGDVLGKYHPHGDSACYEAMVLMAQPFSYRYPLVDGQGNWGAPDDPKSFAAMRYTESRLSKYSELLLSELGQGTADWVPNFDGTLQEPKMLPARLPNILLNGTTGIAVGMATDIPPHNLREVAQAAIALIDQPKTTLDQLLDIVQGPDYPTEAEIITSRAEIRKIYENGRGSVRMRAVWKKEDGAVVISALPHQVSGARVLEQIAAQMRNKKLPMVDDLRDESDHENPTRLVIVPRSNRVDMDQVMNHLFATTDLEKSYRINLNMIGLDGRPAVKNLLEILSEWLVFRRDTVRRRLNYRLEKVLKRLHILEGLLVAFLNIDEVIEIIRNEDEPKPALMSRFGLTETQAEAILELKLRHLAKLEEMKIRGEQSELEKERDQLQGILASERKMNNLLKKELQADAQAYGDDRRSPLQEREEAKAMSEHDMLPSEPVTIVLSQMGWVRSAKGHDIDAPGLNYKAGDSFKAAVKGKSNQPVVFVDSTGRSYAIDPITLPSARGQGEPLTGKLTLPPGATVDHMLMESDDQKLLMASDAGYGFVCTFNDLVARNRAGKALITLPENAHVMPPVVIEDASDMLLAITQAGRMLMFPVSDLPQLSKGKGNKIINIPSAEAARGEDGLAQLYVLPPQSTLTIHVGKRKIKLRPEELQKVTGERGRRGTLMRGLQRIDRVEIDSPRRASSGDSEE

[3] = molecular target: T3, DNA gyrase (Staphylococcus aureus, UniProt P0A0K8+P20831); test: DNA gyrase supercoiling assay (S. aureus)
T3 construct: purchased Inspiralis, UK
T3 sequence (P20831 whole entry): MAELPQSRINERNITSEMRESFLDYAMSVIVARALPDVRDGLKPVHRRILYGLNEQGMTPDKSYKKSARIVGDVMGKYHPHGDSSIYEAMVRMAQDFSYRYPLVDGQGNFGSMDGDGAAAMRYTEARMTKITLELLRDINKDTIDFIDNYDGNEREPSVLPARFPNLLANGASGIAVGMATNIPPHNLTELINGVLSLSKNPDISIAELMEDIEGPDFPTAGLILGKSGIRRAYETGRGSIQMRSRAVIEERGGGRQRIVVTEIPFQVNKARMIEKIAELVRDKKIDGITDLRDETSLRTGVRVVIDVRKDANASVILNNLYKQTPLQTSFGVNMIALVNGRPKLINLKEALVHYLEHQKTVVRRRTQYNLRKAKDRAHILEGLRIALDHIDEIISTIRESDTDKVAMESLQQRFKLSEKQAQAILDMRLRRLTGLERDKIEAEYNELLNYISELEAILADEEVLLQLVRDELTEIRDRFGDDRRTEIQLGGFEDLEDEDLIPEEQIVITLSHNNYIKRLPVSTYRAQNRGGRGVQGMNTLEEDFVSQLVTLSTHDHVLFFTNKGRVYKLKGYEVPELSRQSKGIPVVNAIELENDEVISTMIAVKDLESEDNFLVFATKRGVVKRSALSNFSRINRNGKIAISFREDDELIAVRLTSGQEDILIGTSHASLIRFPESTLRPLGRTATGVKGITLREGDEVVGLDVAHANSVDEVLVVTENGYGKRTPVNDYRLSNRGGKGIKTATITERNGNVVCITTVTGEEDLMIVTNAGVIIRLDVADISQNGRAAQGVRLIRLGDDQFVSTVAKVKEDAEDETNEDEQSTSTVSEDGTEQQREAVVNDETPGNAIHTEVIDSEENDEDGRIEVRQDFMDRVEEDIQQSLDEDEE
T3 sequence (P0A0K8 whole entry): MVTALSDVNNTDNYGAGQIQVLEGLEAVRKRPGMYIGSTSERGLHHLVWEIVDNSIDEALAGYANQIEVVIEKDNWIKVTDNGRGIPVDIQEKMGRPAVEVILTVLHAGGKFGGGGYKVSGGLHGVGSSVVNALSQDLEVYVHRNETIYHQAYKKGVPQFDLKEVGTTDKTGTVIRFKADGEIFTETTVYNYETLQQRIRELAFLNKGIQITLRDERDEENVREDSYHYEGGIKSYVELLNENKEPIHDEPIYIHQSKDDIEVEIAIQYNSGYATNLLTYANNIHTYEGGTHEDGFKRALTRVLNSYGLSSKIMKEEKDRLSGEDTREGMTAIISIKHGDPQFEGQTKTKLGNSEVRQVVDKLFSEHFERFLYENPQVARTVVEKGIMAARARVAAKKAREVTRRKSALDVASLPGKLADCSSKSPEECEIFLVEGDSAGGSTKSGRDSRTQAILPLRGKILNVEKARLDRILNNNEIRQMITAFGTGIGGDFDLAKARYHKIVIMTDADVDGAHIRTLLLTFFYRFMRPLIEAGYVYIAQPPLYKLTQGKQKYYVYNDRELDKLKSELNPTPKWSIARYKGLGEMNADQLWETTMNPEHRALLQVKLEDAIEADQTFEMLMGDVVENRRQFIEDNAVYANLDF

[4] = molecular target: T4, Topoisomerase IV (Staphylococcus aureus, UniProt P0C1S7+P0C1U9); test: Topoisomerase IV decatenation assay (S. aureus)
T4 construct: purchased Inspiralis, UK
T4 sequence (P0C1S7 whole entry): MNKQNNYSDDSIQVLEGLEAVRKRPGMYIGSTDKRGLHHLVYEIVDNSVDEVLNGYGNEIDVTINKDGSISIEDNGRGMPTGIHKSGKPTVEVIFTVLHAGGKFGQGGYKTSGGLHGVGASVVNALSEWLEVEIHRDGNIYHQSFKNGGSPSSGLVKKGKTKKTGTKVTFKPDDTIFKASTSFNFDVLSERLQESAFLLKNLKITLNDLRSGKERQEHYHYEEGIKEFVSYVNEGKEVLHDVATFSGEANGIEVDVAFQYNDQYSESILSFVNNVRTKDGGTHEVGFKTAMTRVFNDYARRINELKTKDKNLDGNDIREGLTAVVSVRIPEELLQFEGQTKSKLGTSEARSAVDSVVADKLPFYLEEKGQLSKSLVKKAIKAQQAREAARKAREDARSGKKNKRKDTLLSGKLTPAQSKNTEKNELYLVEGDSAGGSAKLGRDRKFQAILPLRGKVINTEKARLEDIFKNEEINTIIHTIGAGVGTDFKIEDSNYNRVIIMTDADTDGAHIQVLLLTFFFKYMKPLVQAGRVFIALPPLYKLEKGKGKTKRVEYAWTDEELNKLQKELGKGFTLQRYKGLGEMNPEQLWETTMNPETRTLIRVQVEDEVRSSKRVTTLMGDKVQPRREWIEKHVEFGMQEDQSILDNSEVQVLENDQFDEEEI
T4 sequence (P0C1U9 whole entry): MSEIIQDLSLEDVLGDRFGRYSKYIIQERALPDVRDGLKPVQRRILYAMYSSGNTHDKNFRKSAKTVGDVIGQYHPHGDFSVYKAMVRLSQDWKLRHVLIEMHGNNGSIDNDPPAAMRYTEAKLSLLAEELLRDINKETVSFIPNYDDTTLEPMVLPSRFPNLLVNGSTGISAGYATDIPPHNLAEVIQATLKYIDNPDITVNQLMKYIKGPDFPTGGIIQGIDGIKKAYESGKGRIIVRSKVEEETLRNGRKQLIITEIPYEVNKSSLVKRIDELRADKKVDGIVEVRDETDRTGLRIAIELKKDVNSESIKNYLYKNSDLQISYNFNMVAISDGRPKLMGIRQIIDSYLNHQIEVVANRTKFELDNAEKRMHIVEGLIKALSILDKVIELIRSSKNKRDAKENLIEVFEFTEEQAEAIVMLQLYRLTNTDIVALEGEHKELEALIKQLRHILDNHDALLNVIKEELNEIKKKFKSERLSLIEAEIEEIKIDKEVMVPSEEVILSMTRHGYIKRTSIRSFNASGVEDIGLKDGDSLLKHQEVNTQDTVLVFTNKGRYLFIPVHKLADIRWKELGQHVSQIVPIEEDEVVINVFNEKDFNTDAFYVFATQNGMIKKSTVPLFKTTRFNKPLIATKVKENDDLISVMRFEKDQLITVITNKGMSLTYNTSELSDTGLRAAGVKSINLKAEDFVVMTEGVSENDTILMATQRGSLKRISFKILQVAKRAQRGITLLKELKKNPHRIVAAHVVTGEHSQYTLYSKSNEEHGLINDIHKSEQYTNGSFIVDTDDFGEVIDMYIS

Row | SMILES | % inhibition DNA gyrase [1] | % inhibition Topo IV [2] | % inhibition DNA gyrase [3] [%] | % inhibition Topo IV [4]
1 | O=C(O)C[C@@H](NC[C@@H](O)CN1CCN(c2nccc3ccc(F)cc23)CC1)c1ccccc1 [Compound 141, (3R)-3-({(2R)-3-[4-(7-fluoroisoquinolin-1-yl)piperazin-1-yl]-2-hydroxypropyl}amino)-3-phenylpropanoic acid] | n/a (n/a = not active) | n/a (n/a = not active) | 65 | n/a (n/a = not active)
2 | Cc1c(NCCCN2CCN(c3nccc4ccc(F)cc34)CC2)c2ccccc2oc1=O [Compound 97, 4-({3-[4-(7-fluoroisoquinolin-1-yl)piperazin-1-yl]propyl}amino)-3-methyl-2H-chromen-2-one hydrochloride] | 85% | n/a (n/a = not active) | 86 | n/a (n/a = not active)
3 | O=c1cc(NC2CCCC(N3CCN(c4nccc5ccccc45)CC3)C2)c2ccccc2o1 (stereo not shown) [Compound 74, 4-({3-[4-(isoquinolin-1-yl)piperazin-1-yl]cyclohexyl}amino)-2H-chromen-2-one hydrochloride] | 65% | n/a (n/a = not active) | 61 | n/a (n/a = not active)
4 | O=C(O)C[C@@H](NC[C@H](O)CN1CCN(c2nccc3ccc(F)cc23)CC1)c1ccccc1 [Compound 142, (3R)-3-({(2S)-3-[4-(7-fluoroisoquinolin-1-yl)piperazin-1-yl]-2-hydroxypropyl}amino)-3-phenylpropanoic acid] | n/a (n/a = not active) | n/a (n/a = not active) | 52 | n/a (n/a = not active)
